Data on 9 compounds can be found in US20260232652A1, “COMBINATIONS OF DGK (DIACYLGLYCEROL KINASE) INHIBITORS” (priority 2023, published 2026).

The target in one assay is T1, human DGKzeta (Homo sapiens, UniProt Q13574).
T1 construct: C-terminally FLAG-tagged, recombinant full-length human DGKζ; made in house; host or cells: baculovirus-infected insect cells
Nature of the assay: Human DGKzeta kinase activity inhibition assay (ADP-Glo). Type of assay: biochemical. Conditions: read-out: IC50 hDGKz. The procedure:
Human diacylglycerol kinase zeta (DGKζ) inhibitory activity of compounds of the present invention was quantified employing the human DGKζ kinase activity assay as described in the following paragraphs. In essence, the enzyme activity was measured by quantification of the adenosine-di-phosphate (ADP) generated as a co-product of the enzyme reaction via the “ADP-Glo™ Kinase Assay” kit from the company Promega. This detection system works as follows: In a first step the adenosine-tri-phosphate (ATP) not consumed in the kinase reaction is quantitatively converted to cyclic adenosine-mono-phosphate (cAMP) employing an adenylate cyclase (“ADP-Glo-reagent”), then the adenylate cyclase is stopped and the ADP generated in the kinase reaction is converted to ATP, which subsequently generates in a luciferase-based reaction a glow-luminescence signal (“Kinase Detection Reagent”).
C-terminally FLAG-tagged, recombinant full-length human DGKζ (inhouse expressed in baculovirus infected insect cells, purified using anti-Flag pulldown and size exclusion chromatography) was used as enzyme. As an alternative, commercially available enzyme by Carnabio can be used. As substrate for the kinase, 1,2-dioleoyl-sn-glycerol, reconstituted in octyl-β-D-glucopyranoside micelles, was used. […] Then 35 volumes of 50 mM MOPS buffer (pH 7.4) were added to yield a solution of 0.28 mM 1,2 dioleoyl-sn-glycerol and 200 mM octyl-β-D-glucopyranoside, which was aliquoted, flash-frozen in liquid nitrogen, and stored at −20° C. until use.
For the assay 50 nl of a 100-fold concentrated solution of the test compound in dimethyl sulfoxide (DMSO, Sigma) was pipetted into either a white 1536-well or a white low-volume 384-well microtiter plate (both Greiner Bio-One, Frickenhausen, Germany). […] The concentration of DGKζ was adjusted depending of the activity of the enzyme lot and was chosen appropriate to have the assay in the linear range, a typical concentration is about 0.1 nM. The reaction was stopped by the addition of 2.5 μL of “ADP-Glo-reagent” (1 to 1.5 diluted with water) and the resulting mixture was incubated at 22° C. for 1 h to convert the ATP not consumed in the kinase reaction completely to cAMP. […] The amount of emitted light was taken as a measure for the amount of ADP generated and thereby for the activity of the DGKζ.

For a further assay, the target named is T2, human DGKalpha (Homo sapiens, UniProt P23743).
T2 construct: made in house; host or cells: baculovirus-infected Sf9 insect cells
Nature of the assay: Human DGKalpha kinase activity inhibition assay (ADP-Glo). Type of assay: biochemical. Particulars: read-out: IC50 hDGKa. The procedure:
Human DGKalpha inhibitory activity of compounds of the present invention was quantified employing the human DGKalpha kinase activity assay as described in the following paragraphs. In essence, the enzyme activity was measured by quantification of the adenosine-di-phosphate (ADP) generated as a co-product of the enzyme reaction via the “ADP-Glo™ Kinase Assay” kit from the company Promega. This detection system works as follows: In a first step the ATP not consumed in the kinase reaction is quantitatively converted to cAMP employing an adenylate cyclase (“ADP-Glo-reagent”), then the adenylate cyclase is stopped and the ADP generated in the kinase reaction converted to ATP, which subsequently generates in a luciferase-based reaction a glow-luminescence signal (“Kinase Detection Reagent”).
C-terminally FLAG-tagged, recombinant full-length human DGKalpha (expressed in baculovirus infected insect cells, purified using anti-Flag pulldown and size exclusion chromatography as described below, DGKa_hu_1) was used as enzyme. As substrate for the kinase 1,2-dioleoyl-sn-glycerol, reconstituted in octyl-β-D-glucopyranoside micelles, was used. […] Then 35 volumes of 50 mM MOPS buffer (pH 7.4) were added to yield a solution of 0.28 mM 1,2 dioleoyl-sn-glycerol and 200 mM octyl-β-D-glucopyranoside, which was aliquoted, flash-frozen in liquid nitrogen, and stored at −20° C. until use.
For the assay 50 nl of a 100-fold concentrated solution of the test compound in dimethyl sulfoxide (DMSO, Sigma) was pipetted into either a white 1536-well or a white low-volume 384-well microtiter plate (both Greiner Bio-One, Frickenhausen, Germany). […] The concentration of DGKα was adjusted depending of the activity of the enzyme lot and was chosen appropriate to have the assay in the linear range, a typical concentration is about 0.1 nM. The reaction was stopped by the addition of […] of “ADP-Glo-reagent” (1 to 1.5 diluted with water) and the resulting mixture was incubated at 22° C. for 1 h to convert the ATP not consumed in the kinase reaction completely to cAMP. […] The amount of emitted light was taken as a measure for the amount of ADP generated and thereby for the activity of the DGKα.
For orientation: In ADP-Glo the light output rises with the ADP produced.

The test system of assay [1] is glioblastoma multiforme (GBM) cells. Particulars: concurrent administration; cited from earlier work.

Values joined by “and” are separate entries in the source; they are usually repeats but may differ in a detail not shown here. Identical values can stand only once.

T1 sequence (Q13574 whole entry): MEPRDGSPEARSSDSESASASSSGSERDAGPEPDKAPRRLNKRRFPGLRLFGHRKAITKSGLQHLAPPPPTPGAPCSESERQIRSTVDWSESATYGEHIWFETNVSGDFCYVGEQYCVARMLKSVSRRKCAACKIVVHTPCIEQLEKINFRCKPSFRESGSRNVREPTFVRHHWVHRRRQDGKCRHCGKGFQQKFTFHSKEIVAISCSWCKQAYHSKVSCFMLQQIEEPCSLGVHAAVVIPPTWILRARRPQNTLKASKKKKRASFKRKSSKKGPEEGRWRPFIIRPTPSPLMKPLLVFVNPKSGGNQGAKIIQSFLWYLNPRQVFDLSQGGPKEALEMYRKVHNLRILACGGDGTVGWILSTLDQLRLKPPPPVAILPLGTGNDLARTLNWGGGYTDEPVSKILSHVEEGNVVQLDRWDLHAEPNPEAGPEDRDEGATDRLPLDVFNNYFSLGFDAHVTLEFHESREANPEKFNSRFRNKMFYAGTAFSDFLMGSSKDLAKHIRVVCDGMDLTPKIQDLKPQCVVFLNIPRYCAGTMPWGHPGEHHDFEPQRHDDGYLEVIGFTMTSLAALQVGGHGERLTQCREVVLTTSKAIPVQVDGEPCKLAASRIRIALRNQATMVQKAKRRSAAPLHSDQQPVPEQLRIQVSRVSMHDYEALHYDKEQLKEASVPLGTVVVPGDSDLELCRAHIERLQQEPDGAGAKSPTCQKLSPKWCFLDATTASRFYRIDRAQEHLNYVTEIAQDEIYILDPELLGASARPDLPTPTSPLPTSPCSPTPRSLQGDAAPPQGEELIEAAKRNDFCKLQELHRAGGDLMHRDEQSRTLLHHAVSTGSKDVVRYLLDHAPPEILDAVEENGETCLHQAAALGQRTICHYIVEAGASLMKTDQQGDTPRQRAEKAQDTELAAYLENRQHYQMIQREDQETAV
T2 sequence (P23743 whole entry): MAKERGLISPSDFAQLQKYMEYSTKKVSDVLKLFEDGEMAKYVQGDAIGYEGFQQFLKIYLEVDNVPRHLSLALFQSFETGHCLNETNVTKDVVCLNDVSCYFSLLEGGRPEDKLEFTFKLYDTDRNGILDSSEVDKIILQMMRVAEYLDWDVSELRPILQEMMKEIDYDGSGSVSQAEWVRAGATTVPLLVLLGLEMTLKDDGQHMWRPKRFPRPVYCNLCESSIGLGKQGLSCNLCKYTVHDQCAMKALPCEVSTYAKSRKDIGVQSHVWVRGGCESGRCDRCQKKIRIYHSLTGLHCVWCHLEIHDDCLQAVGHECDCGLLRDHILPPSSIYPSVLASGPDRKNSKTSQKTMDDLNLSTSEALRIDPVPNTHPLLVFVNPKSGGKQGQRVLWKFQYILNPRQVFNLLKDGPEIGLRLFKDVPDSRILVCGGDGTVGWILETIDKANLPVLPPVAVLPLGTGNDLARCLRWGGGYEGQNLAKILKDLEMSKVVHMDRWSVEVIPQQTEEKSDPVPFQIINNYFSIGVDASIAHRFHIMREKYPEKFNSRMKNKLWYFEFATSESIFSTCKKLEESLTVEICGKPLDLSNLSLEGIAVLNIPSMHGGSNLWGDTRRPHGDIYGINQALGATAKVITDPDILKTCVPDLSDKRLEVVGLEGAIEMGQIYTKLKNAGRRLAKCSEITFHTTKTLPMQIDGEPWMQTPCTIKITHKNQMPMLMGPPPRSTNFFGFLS

As for `CC(C(N)=O)N(c1ccc(F)cc1)c1nc(N)c(C(=O)c2ccc(OC(F)F)cc2)s1` (single isomer, unassigned) [Example 44.2, 2-(N-[4-amino-5-[4-(difluoromethoxy)benzoyl]thiazol-2-yl]-4-fluoro-anilino)propanamide], the IC50 is 3.9 nM and 6.7 nM at human DGKzeta; more than 20000 nM on human DGKalpha. On to `Cc1nc2sccn2c(=O)c1CCN1CCC(=C(c2ccccc2)c2ccc(F)cc2)CC1` [Example R59022], for which the “growth of intracranially injected GBM tumors” value in assay [1] is given as “decreased growth of intracranially injected GBM tumors”. As for `CNC(=O)c1c(N2CCC(c3nc4cc(C)ccc4o3)CC2)c2ccccc2n(C)c1=O` [Example 448, N,1-dimethyl-4-[4-(5-methyl-1,3-benzoxazol-2-yl)piperidin-1-yl]-2-oxo-1,2-dihydroquinoline-3-carboxamide], the IC50 at human DGKzeta is more than 20000 nM. The same measure, in the same setting: in the case of `Cc1ccc2oc(C3CCN(c4c(C(N)=O)c(=O)n(C)c5ccccc45)CC3)nc2c1` [Example 107, 1-methyl-4-[4-(5-methyl-1,3-benzoxazol-2-yl)piperidin-1-yl]-2-oxo-1,2-dihydroquinoline-3-carboxamide] it was more than 20000 nM. Still for that read-out and setting: the value for `COc1ccc(C2CCN(c3c(C(N)=O)c(=O)n(C)c4ccccc34)CC2)cc1` [Example 112, 4-[4-(4-methoxyphenyl)piperidin-1-yl]-1-methyl-2-oxo-1,2-dihydroquinoline-3-carboxamide] was more than 20000 nM.

For `COc1ccc(C(=O)c2sc(N(c3ccc(F)c(F)c3)C(C)C(N)=O)nc2N)cc1` (single isomer, unassigned) [Example 51.1, 2-(N-[4-amino-5-(4-methoxybenzoyl)thiazol-2-yl]-3,4-difluoro-anilino)propanamide], the IC50 was 8.2 nM and 8.9 nM on human DGKzeta; more than 13300 nM at human DGKalpha. As to `CC(C(N)=O)N(c1ccc(F)cc1)c1nc(N)c(C(=O)c2ccc(OC(F)(F)F)cc2)s1` (single isomer, unassigned) [Example 40.2, 2-(N-[4-amino-5-[4-(trifluoromethoxy)benzoyl]thiazol-2-yl]-4-fluoro-anilino)propanamide], the values for the IC50 on human DGKzeta and on human DGKalpha were 7.1 nM and more than 12200 nM, respectively. The like results for `CC(C(N)=O)N(c1ccc(F)cc1)c1nc(N)c(C(=O)c2ccc(C(F)(F)F)nc2)s1` (single isomer, unassigned) [Example 29.2, 2-(N-[4-amino-5-[6-(trifluoromethyl)pyridine-3-carbonyl]thiazol-2-yl]-4-fluoro-anilino)propanamide] were, in that order, 46 nM and more than 15000 nM. As for `Cn1c(=O)c(C#N)c(N2CCC(c3nc4ccc(F)cc4o3)CC2)c2ccccc21` [Example 4, 4-[4-(6-fluoro-1,3-benzoxazol-2-yl)piperidin-1-yl]-1-methyl-2-oxo-1,2-dihydroquinoline-3-carbonitrile], the IC50 at human DGKzeta is more than 20000 nM.

For orientation: IC50 means the point on the concentration scale where inhibition reaches its midpoint.
